For series [1], the system named is Kanzawa spider mite (Tetranychus kanzawai kishida) which are resistant to chlorfenapyr. Description: Miticidal effect against female imagines of chlorfenapyr-resistant Kanzawa spider mite (leaf disk spray test). Conditions: for LC50: single test compound, female imago, chlorfenapyr-resistant strain, mortality two days after spray treatment, probit analysis. How it is done:
In this experiment, the miticidal effect against female imagines (adults) of Kanzawa spider mite (Tetranychus kanzawai kishida) which are resistant to chlorfenapyr is evaluated.
Round leaf disks (2 cm diameter) are cut out of a first leaf of kidney bean by a leaf punch and 4 sheets of the disks are placed on wet sanitary cotton in a plastic cup (8 cm diameter). On each leaf disk, 4 female imagines of Kanzawa spider mite (Tetranychus kanzawai kishida) which had acquired a strong resistance to chlorfenapyr are inoculated.
Each plastic cup is sprayed with 3.5 ml of a test solution with a rotary spray tower (Mizuho Scientific Co., Ltd.) and stored in a constant temperature chamber held at 25±1° C. (32 individuals are tested per concentration, 4-5 concentrations are evaluated per formulation and 2 performances are repeated). […] [formula] […]
The tested mite was a female image of the chlorfenapyr-resistant strain of Kanzawa spider mite which was obtained by a long artificial selection procedure against chlorfenapyr in a laboratory on a colony of Kanzawa spider mite which had been collected in the field.

Series [2] deals with susceptible strain of spider mite. Description: LC50 against a susceptible strain of spider mite. The series is classed as in vivo.

For orientation: LC50 means the concentration lethal to half of the exposed cells or organisms. The low end stands for a more lethal substance, the high end for a less lethal substance. As for `CCC(C)c1ccccc1OC(=O)NC` (centres unmarked) [BPMC, 2-sec-Butylphenyl-N-methylcarbamate], the LC50 in series [1] is recorded as 3200 ppm.

With `CCOCn1c(-c2ccc(Cl)cc2)c(C#N)c(Br)c1C(F)(F)F` [Chlorfenapyr, 4-Bromo-2-(4-chlorophenyl)-1-(ethoxymethyl)-5-(trifluoromethyl)pyrrole-3-carbonitrile], the “resistance to chlorfenapyr of the resistant strain versus susceptible strain” value in series [1] (LC50 resistant strain relative to susceptible strain) is listed as about 300 fold. For the same molecule, the LC50 in series [1] was 1500 ppm; in series [2], “about 5 ppm”. For the molecule `CCSCc1ccccc1OC(=O)NC` [Ethiofencarb, 2-(Ethylthiomethyl)phenyl methylcarbamate], in series [1], the LC50 was 2100 ppm.
